In US20250026759A1 (Merck Sharp & Dohme LLC, priority 2023, published 2025):
pEC50: −log10 of the molar value.

What follows are compounds tested on PBMCs infected with VSV-G pseudotyped HIV virus (VSV-G/pNLG1-P2A-ΔEnv) (assay: cells). Conditions: Homo sapiens, PBMC, read-out: TACK EC50.
Format: cell-based, human

Row | SMILES | pEC50
1 | COc1ccn(Cc2cc3c(cc2F)[C@@](C#CC2CC2)(C(C)(F)F)NC(=O)N3)n1 [Example 57, (S)-4-(cyclopropylethynyl)-4-(1,1-difluoroethyl)-6-fluoro-7-((3-methoxy-1H-pyrazol-1-yl)methyl)-3,4-dihydroquinazolin-2(1H)-one] | 7.89
2 | CC(F)(F)[C@@]1(C#CC2CC2)NC(=O)Nc2cc(Cn3nc(N)cc3Cl)c(F)cc21 [Example 60, (S)-7-((3-amino-5-chloro-1H-pyrazol-1-yl)methyl)-4-(cyclopropylethynyl)-4-(1,1-difluoroethyl)-6-fluoro-3,4-dihydroquinazolin-2(1H)-one] | 7.54
3 | CC(F)(F)[C@@]1(C#CC2CC2)NC(=O)Nc2cc(Cn3[nH]c(=O)c4c3CCC4)c(F)cc21 [Example 61, (S)-4-(cyclopropylethynyl)-4-(1,1-difluoroethyl)-6-fluoro-7-((3-oxo-3,4,5,6-tetrahydrocyclopenta[c]pyrazol-1(2H)-yl)methyl)-3,4-dihydroquinazolin-2(1H)-one] | 7.51
4 | NC(=O)c1nccn1Cc1cc2c(cc1F)[C@@](C#CC1CC1)(C(F)(F)C1CC1)NC(=O)N2 [Example 62, (S)-1-((4-(cyclopropyldifluoromethyl)-4-(cyclopropylethynyl)-6-fluoro-2-oxo-1,2,3,4-tetrahydroquinazolin-7-yl)methyl)-1H-imidazole-2-carboxamide] | 7.50
5 | CC(F)(F)[C@@]1(C#CC2CC2)NC(=O)Nc2cc(Cn3ccc(OC(F)F)n3)c(F)cc21 [Example 63, (S)-4-(cyclopropylethynyl)-4-(1,1-difluoroethyl)-7-((3-(difluoromethoxy)-1H-pyrazol-1-yl)methyl)-6-fluoro-3,4-dihydroquinazolin-2(1H)-one] | 7.47
6 | COCc1cnn(Cc2cc3c(cc2F)[C@@](C#CC2CC2)(C(C)(F)F)NC(=O)N3)c1 [Example 64, (S)-4-(cyclopropylethynyl)-4-(1,1-difluoroethyl)-6-fluoro-7-((4-(methoxymethyl)-1H-pyrazol-1-yl)methyl)-3,4-dihydroquinazolin-2(1H)-one] | 7.47
7 | COCc1ncn(Cc2cc3c(cc2F)[C@@](C#CC2CC2)(C(C)(F)F)NC(=O)N3)n1 [Example 65, (S)-4-(cyclopropylethynyl)-4-(1,1-difluoroethyl)-6-fluoro-7-((3-(methoxymethyl)-1H-1,2,4-triazol-1-yl)methyl)-3,4-dihydroquinazolin-2(1H)-one] | 7.42
8 | COCc1nn(Cc2cc3c(cc2F)[C@@](C#CC2CC2)(C(C)(F)F)NC(=O)N3)cc1Cl [Example 66, (S)-7-((4-chloro-3-(methoxymethyl)-1H-pyrazol-1-yl)methyl)-4-(cyclopropylethynyl)-4-(1,1-difluoroethyl)-6-fluoro-3,4-dihydroquinazolin-2(1H)-one] | 7.41
9 | CC(F)(F)[C@@]1(C#CC2CC2)NC(=O)Nc2cc(Cn3cc(F)c(CO)n3)c(F)cc21 [Example 67, (S)-4-(cyclopropylethynyl)-4-(1,1-difluoroethyl)-6-fluoro-7-((4-fluoro-3-(hydroxymethyl)-1H-pyrazol-1-yl)methyl)-3,4-dihydroquinazolin-2(1H)-one] | 7.58
10 | Cc1cn(Cc2cc3c(cc2F)[C@@](C#CC2CC2)(C(C)(F)F)NC(=O)N3)nc1CO [Example 68, (S)-4-(cyclopropylethynyl)-4-(1,1-difluoroethyl)-6-fluoro-7-((3-(hydroxymethyl)-4-methyl-1H-pyrazol-1-yl)methyl)-3,4-dihydroquinazolin-2(1H)-one] | 7.51
11 | CC(F)(F)[C@@]1(C#CC2CC2)NC(=O)Nc2cc(Cn3nc(CO)cc3Cl)c(F)cc21 [Example 69, (S)-7-((5-chloro-3-(hydroxymethyl)-1H-pyrazol-1-yl)methyl)-4-(cyclopropylethynyl)-4-(1,1-difluoroethyl)-6-fluoro-3,4-dihydroquinazolin-2(1H)-one] | 7.53
12 | CC(F)(F)[C@@]1(C#CC2CC2)NC(=O)Nc2cc(Cn3cc(CCO)cn3)c(F)cc21 [Example 70, (S)-4-(cyclopropylethynyl)-4-(1,1-difluoroethyl)-6-fluoro-7-((4-(2-hydroxyethyl)-1H-pyrazol-1-yl)methyl)-3,4-dihydroquinazolin-2(1H)-one] | 7.29
13 | CC(F)(F)[C@@]1(C#CC2CC2)NC(=O)Nc2cc(Cn3cc(Cl)c(CO)n3)c(F)cc21 [Example 71, (S)-7-((4-chloro-3-(hydroxymethyl)-1H-pyrazol-1-yl)methyl)-4-(cyclopropylethynyl)-4-(1,1-difluoroethyl)-6-fluoro-3,4-dihydroquinazolin-2(1H)-one] | 7.52
14 | COc1nccn1Cc1cc2c(cc1F)[C@@](C#CC1CC1)(C(C)(F)F)NC(=O)N2 [Example 74, (S)-4-(cyclopropylethynyl)-4-(1,1-difluoroethyl)-6-fluoro-7-((2-methoxy-1H-imidazol-1-yl)methyl)-3,4-dihydroquinazolin-2(1H)-one] | 7.42
15 | CNc1ccn(Cc2cc3c(cc2F)[C@@](C#CC2CC2)(C(C)(F)F)NC(=O)N3)n1 [Example 75, (S)-4-(cyclopropylethynyl)-4-(1,1-difluoroethyl)-6-fluoro-7-((3-(methylamino)-1H-pyrazol-1-yl)methyl)-3,4-dihydroquinazolin-2(1H)-one] | 7.43
16 | CN(C)c1ccn(Cc2cc3c(cc2F)[C@@](C#CC2CC2)(C(C)(F)F)NC(=O)N3)n1 [Example 76, (S)-4-(cyclopropylethynyl)-4-(1,1-difluoroethyl)-7-((3-(dimethylamino)-1H-pyrazol-1-yl)methyl)-6-fluoro-3,4-dihydroquinazolin-2(1H)-one] | 7.22
17 | CC(F)(F)[C@@]1(C#CC2CC2)NC(=O)Nc2cc(CNC(=O)c3[nH]cnc3Cl)c(F)cc21 [Example 77, (S)-4-chloro-N-((4-(cyclopropylethynyl)-4-(1,1-difluoroethyl)-6-fluoro-2-oxo-1,2,3,4-tetrahydroquinazolin-7-yl)methyl)-1H-imidazole-5-carboxamide] | 8.06
18 | O=C1Nc2cc(CNC(=O)c3[nH]cnc3Cl)c(F)cc2[C@@](C#CC2CC2)(C(F)(F)F)N1 [Example 78, (S)-4-chloro-N-((4-(cyclopropylethynyl)-6-fluoro-2-oxo-4-(trifluoromethyl)-1,2,3,4-tetrahydroquinazolin-7-yl)methyl)-1H-imidazole-5-carboxamide] | 7.82
19 | CC(F)(F)[C@@]1(C#CC2CC2)NC(=O)Nc2cc(CNC(=O)c3ncc[nH]3)c(F)cc21 [Example 79, (S)—N-((4-(cyclopropylethynyl)-4-(1,1-difluoroethyl)-6-fluoro-2-oxo-1,2,3,4-tetrahydroquinazolin-7-yl)methyl)-1H-imidazole-2-carboxamide] | 8.04
20 | O=C1Nc2cc(CNC(=O)c3ncc[nH]3)c(F)cc2[C@@](C#CC2CC2)(C(F)(F)F)N1 [Example 80, (S)-N-((4-(cyclopropylethynyl)-6-fluoro-2-oxo-4-(trifluoromethyl)-1,2,3,4-tetrahydroquinazolin-7-yl)methyl)-1H-imidazole-2-carboxamide] | 8.01
21 | CN(Cc1cc2c(cc1F)[C@@](C#CC1CC1)(C(C)(F)F)NC(=O)N2)C(=O)c1ncc[nH]1 [Example 81, (S)-N-((4-(cyclopropylethynyl)-4-(1,1-difluoroethyl)-6-fluoro-2-oxo-1,2,3,4-tetrahydroquinazolin-7-yl)methyl)-N-methyl-1H-imidazole-2-carboxamide] | 7.92
22 | Cn1ccnc1C(=O)NCc1cc2c(cc1F)[C@@](C#CC1CC1)(C(C)(F)F)NC(=O)N2 [Example 82, (S)-N-((4-(cyclopropylethynyl)-4-(1,1-difluoroethyl)-6-fluoro-2-oxo-1,2,3,4-tetrahydroquinazolin-7-yl)methyl)-1-methyl-1H-imidazole-2-carboxamide] | 6.81
23 | O=C1Nc2cc(CNC(=O)c3ncco3)c(F)cc2[C@@](C#CC2CC2)(C(F)(F)F)N1 [Example 83, (S)-N-((4-(cyclopropylethynyl)-6-fluoro-2-oxo-4-(trifluoromethyl)-1,2,3,4-tetrahydroquinazolin-7-yl)methyl)oxazole-2-carboxamide] | 6.80
24 | Cc1nc(N)sc1C(=O)NCc1cc2c(cc1F)[C@@](C#CC1CC1)(C(F)(F)F)NC(=O)N2 [Example 84, (S)-2-amino-N-((4-(cyclopropylethynyl)-6-fluoro-2-oxo-4-(trifluoromethyl)-1,2,3,4-tetrahydroquinazolin-7-yl)methyl)-4-methylthiazole-5-carboxamide] | 6.56
25 | O=C1Nc2cc(CNC(=O)c3nnc[nH]3)c(F)cc2[C@@](C#CC2CC2)(C(F)(F)F)N1 [Example 85, (S)-N-((4-(cyclopropylethynyl)-6-fluoro-2-oxo-4-(trifluoromethyl)-1,2,3,4-tetrahydroquinazolin-7-yl)methyl)-4H-1,2,4-triazole-3-carboxamide] | 6.55
26 | Cc1cc[nH]c1C(=O)NCc1cc2c(cc1F)[C@@](C#CC1CC1)(C(F)(F)F)NC(=O)N2 [Example 86, (S)-N-((4-(cyclopropylethynyl)-6-fluoro-2-oxo-4-(trifluoromethyl)-1,2,3,4-tetrahydroquinazolin-7-yl)methyl)-3-methyl-1H-pyrrole-2-carboxamide] | 7.80
27 | N#Cc1c[nH]c(C(=O)NCc2cc3c(cc2F)[C@@](C#CC2CC2)(C(F)(F)F)NC(=O)N3)c1 [Example 88, (S)-4-cyano-N-((4-(cyclopropylethynyl)-6-fluoro-2-oxo-4-(trifluoromethyl)-1,2,3,4-tetrahydroquinazolin-7-yl)methyl)-1H-pyrrole-2-carboxamide] | 7.60
28 | O=C1Nc2cc(CNC(=O)c3nccs3)c(F)cc2[C@@](C#CC2CC2)(C(F)(F)F)N1 [Example 89, (S)-N-((4-(cyclopropylethynyl)-6-fluoro-2-oxo-4-(trifluoromethyl)-1,2,3,4-tetrahydroquinazolin-7-yl)methyl)thiazole-2-carboxamide] | 7.02
29 | CC(F)(F)[C@@]1(C#CC2CC2)NC(=O)Nc2cc(Cn3cc4ccccc4n3)c(F)cc21 [Example 90, (S)-7-((2H-indazol-2-yl)methyl)-4-(cyclopropylethynyl)-4-(1,1-difluoroethyl)-6-fluoro-3,4-dihydroquinazolin-2(1H)-one] | 8.03
